Structures can show the parent of a compound that is named as a salt. Where two headings read alike, the source gives them in different places.
Assays:
MCF-7 [1] = settings: cited from earlier work
MDA-MB-231 [2] = settings: cited from earlier work
AGS = test: MTT assay; assay type: cell-based; settings: Homo sapiens, 24 h of treatment
Procedure: (§1) The NCI-60 screening protocol utilizes the sulforhodamine B (SRB) assay following 48 h of compound exposure. […] The MTT assay was performed on eleven cancer cell lines: human breast cancer (MDA-MB-231, MCF-7, HCC 1954), human gastric cancer (AGS), human colorectal adenocarcinoma (HT-29, DLD-1, HCT 116), human neuroblastoma (SH SY5Y), and human leukemia (JURKAT, RMPI 8866, K-562) cell lines. The study was conducted in triplicate at the following seven concentrations: 0.62, 1.25, 2.5, 5, 10, 20, and 40 μM.
(§2) The selected cell lines were seeded into 96-well plates and cultured in accordance with the previously described methodology. Then, the cells were treated with all tested compounds and DOX at concentrations of 0.625, 1.25, 2.5, 5.0, 10.0, 20.0, and 40.0 μM for 24 h. A solution of 3-(4,5-dimethyl-2-thiazolyl)-2,5-diphenyl-2H-tetrazolium bromide (Sigma-Aldrich, St. Louis, MO, USA) in phosphate-buffered saline without calcium and magnesium (Corning, Kennebunk, ME, USA) at a concentration of 5 mg/mL was used to carry out MTT assay. After incubation, 20 μL of the prepared MTT solution was added, and then the cells were incubated at 37 °C for two hours. Afterwards, the cells were lysed using 100 μL of lysing buffer (comprising 25 mM HCl, 2% acetic acid, 3% DMF, and 5% SDS, with a pH of 4.7). The absorbance was determined at a wavelength of 570 nm using an Absorbance 96 microplate reader (Byonoy GmbH, Hamburg, Germany).

DLD-1 = test: MTT assay; assay type: cell-based; settings: Homo sapiens; DLD-1, 24 h of treatment
Procedure: as §1, §2

HCC-1954 = test: MTT assay; assay type: cell-based; settings: Homo sapiens, HCC1954; HCC-1954, 24 h of treatment
Procedure: as §1, §2

HCT-116 = test: MTT assay; assay type: cell-based; settings: Homo sapiens; HCT-116, 24 h of treatment
Procedure: as §1, §2

HT-29 = test: MTT assay; assay type: cell-based; settings: Homo sapiens; HT-29, 24 h of treatment
Procedure: as §1, §2

Jurkat = test: MTT assay; assay type: cell-based; settings: Homo sapiens, 24 h of treatment
Procedure: as §1, §2

K562 = test: MTT assay; assay type: cell-based; settings: Homo sapiens; K562, 24 h of treatment
Procedure: as §1, §2

MCF-7 [3] = test: MTT assay; assay type: cell-based; settings: Homo sapiens, MCF7; MCF-7, 24 h of treatment
Procedure: as §1, §2

MDA-MB-231 [4] = test: MTT assay; assay type: cell-based; settings: Homo sapiens; MDA-MB-231, 24 h of treatment
Procedure: as §1, §2

RPMI 8866 = test: MTT assay; assay type: cell-based; settings: Homo sapiens; RPMI 8866, 24 h of treatment
Procedure: as §1, §2

SH SY5Y = test: MTT assay; assay type: cell-based; settings: Homo sapiens, 24 h of treatment
Procedure: as §1, §2

MCF-7 [5] = test: [3H]-thymidine incorporation assay; assay type: cell-based; settings: Homo sapiens, MCF7; MCF-7, 24 h of treatment
Procedure: (§3) Another method of assessing the cytotoxic effects of tested compounds, [^3H]-thymidine incorporation assay, was applied. This method provided the capability to analyze the antiproliferative activity of novel structures on MCF-7 and MDA-MB-231 through their ability to incorporate thymidine into the cells. The acquired results further confirmed the potent activity of the 14b compound as the most prominent structure among the novel compounds (Table 2). The test was carried out in triplicate at concentrations of 5, 15, and 30 μM for the MDA-MB-231 cell line and 1, 5, and 10 μM for the MCF-7 cell line.
(§4) Following the selection of cell lines for further study, the effects of all compounds on cell proliferation were evaluated on MCF-7 and MDA-MB-231 cell lines. Cells were seeded in 24-well plates and cultured as described above. Cells were treated with the compounds at concentrations 1, 5, and 10 μM, and 5, 15, and 30 μM for MCF-7 and MDA-MB-231 cell lines, respectively, for 24 h. Subsequently, 0.5 μCi [^3H]-thymidine was added for 4 h at 37 °C. Then, plates with cells were placed on the ice, the liquid was aspirated, and cells were washed twice with 1mL of 0.05 M Tris-HCl buffer comprising 0.11 M NaCl and precipitated by adding 1 mL per well of 5% trichloroacetic. After precipitation, the cells were dissolved with 1 mL of 0.1 M NaOH with 1% SDS (Sigma-Aldrich, St. Louis, MO, USA) at room temperature (RT). The cell lysates were transferred into scintillation vials containing 2 mL of scintillation fluid (Ultima Gold™ XR, PerkinElmer, MA, USA), and cell-associated radioactivity was measured using a Scintillation Counter 1900 TR, TRI-CARB (Packard, Perkin Elmer, Inc., San Jose, CA, USA). The [^3H]-thymidine uptake was expressed as a percentage of the control value.

MDA-MB-231 [6] = test: [3H]-thymidine incorporation assay; assay type: cell-based; settings: Homo sapiens; MDA-MB-231, 24 h of treatment
Procedure: as §3, §4

[7] = tested on: reactive oxygen species in MCF-7 cells; test: H2DCFDA and DAPI double staining; assay type: cell-based, human; settings: MCF-7, 1 and 5 μM, one hour
Procedure: (§5) The double staining method was applied to analyze novel compounds’ effects on the generation of reactive oxygen species. The first dye, H2DCFDA, after conversion to DCF, serves as an indicator of oxidative stress (green fluorescence), while the second one, known as DAPI, was applied to showcase nuclear genetic material of MCF-7 and MDA-MB-231 breast cancer cells (blue fluorescence). The concentrations of compounds were 1 and 5 μM for the MCF-7 cell line and 5 and 10 μM for the MDA-MB-231 cell line. The incubation time after treatment was one hour in both cell lines.
(§6) The influences of 2b, 12b, 14b, and doxorubicin (1 and 5 µM and 5 and 10 µM for MCF-7 and MDA-MB-231 cell lines, respectively) on the generation of reactive oxygen species (ROS) were analyzed. Cells were seeded in 6-well culture plates at 1 × 10^5 cells per well in 1 mL of medium and then treated with compounds for 1 h and then washed with PBS. Double staining was conducted with 20 µM 2′,7′-dichlorodihydrofluorescein diacetate (H2DCFDA) reagent (Thermo Fisher Scientific, Eugene, OR, USA), which is colorless, and is cleaved by intracellular esterases and oxidized to the highly fluorescent 2′,7′-dichlorofluorescein (DCF), and 10 µg/mL of the fluorescent dye 4′,6-diamidino-2-phenylindole (DAPI) (Sigma-Aldrich, St. Louis, MO, USA), which visualizes the nuclear DNA of cells. A Nikon ECLIPSE Ti fluorescence microscope (Nikon, Tokyo, Japan) was used to obtain results which were analyzed using ImageJ software 1.54k (Bethesda, MD, USA). The fluorescence intensity of the DCF reagent was evaluated relative to the control. The number of analyzed cells was above 100.

[8] = tested on: reactive oxygen species in MDA-MB-231 cells; test: H2DCFDA and DAPI double staining; assay type: cell-based, human; settings: MDA-MB-231, 5 and 10 μM, one hour
Procedure: as §5, §6

IC50 (AGS)	IC50 (DLD-1)	IC50 (HCC-1954)	IC50 (HCT-116)	IC50 (HT-29)	IC50 (Jurkat)	IC50 (K562)	IC50 (MCF-7 [3])	IC50 (MDA-MB-231 [4])	IC50 (MCF-7 [5])	IC50 (MDA-MB-231 [6])	Structure (SMILES)	IC50 (MCF-7 [1]; MCF-7 ref 4, read-out: IC50)	IC50 (MDA-MB-231 [2]; MDA-MB-231 ref 4, read-out: IC50)	IC50 (RPMI 8866)	IC50 (SH SY5Y)	IC50 (MCF-7 [1]; MCF-7 ref 39, read-out: concentration required to inhibit more than 50%)	IC50 (MDA-MB-231 [2]; MDA-MB-231 ref 39, read-out: concentration required to inhibit more than 50%)	generation of reactive oxygen species [7]	generation of reactive oxygen species [8]
–	–	–	–	–	–	–	–	–	–	–	CC(C)C(C(=O)O)N1C(=O)/C(=C/C(Cl)=C/c2ccc([N+](=O)[O-])cc2)SC1=S (centres unmarked) [substructure B, 2-{5-[(Z,2Z)-2-Chloro-3-(4-nitrophenyl)-2-propenylidene]-4-oxo-2-thioxothiazolidin-3-yl}-3-methylbutanoic Acid]	5.02 µM	15.2 µM	–	–	–	–	–	–
3.38 µM	3.68 µM	4.9 µM	4.15 µM	8.04 µM	3.19 µM	7.35 µM	2.38 µM	8.34 µM	2.21 µM	1.84 µM	CCC(C)C(C(=O)O)N1C(=O)/C(=C/C=C/c2ccc([N+](=O)[O-])o2)SC1=S (centres unmarked) [8b, 3-Methyl-2-((Z)-5-((E)-3-(5-nitrofuran-2-yl)allylidene)-4-oxo-2-thioxothiazolidin-3-yl)pentanoic acid]	–	–	14.2 µM	6.6 µM	–	–	–	–
6.53 µM	8.03 µM	17.6 µM	14.7 µM	30.4 µM	14.2 µM	25.8 µM	7.74 µM	18.5 µM	7.79 µM	2.65 µM	CCC(C(=O)O)N1C(=O)/C(=C/C=C/c2ccc([N+](=O)[O-])o2)SC1=S (centres unmarked) [3b, 2-((Z)-5-((E)-3-(5-Nitrofuran-2-yl)allylidene)-4-oxo-2-thioxothiazolidin-3-yl)butanoic acid]	–	–	35.2 µM	28.5 µM	–	–	–	–
30.6 µM	20.3 µM	> 40 µM	36.1 µM	> 40 µM	17.1 µM	> 40 µM	33.1 µM	> 40 µM	> 10 µM	> 30 µM	O=C(O)C(Cc1ccc(O)cc1)N1C(=O)/C(=C/C=C/c2ccc([N+](=O)[O-])o2)SC1=S (centres unmarked) [11b, 3-(4-Hydroxyphenyl)-2-((Z)-5-((E)-3-(5-nitrofuran-2-yl)allylidene)-4-oxo-2-thioxothiazolidin-3-yl)propanoic acid]	–	–	27.8 µM	> 40 µM	–	–	–	–
8.57 µM	9.29 µM	19.1 µM	13.5 µM	28.6 µM	6.7 µM	25.5 µM	9.23 µM	22.9 µM	7.87 µM	5.99 µM	O=C(O)C(Cc1ccccc1)N1C(=O)/C(=C/C=C/c2ccc([N+](=O)[O-])o2)SC1=S (centres unmarked) [10b, 2-((Z)-5-((E)-3-(5-Nitrofuran-2-yl)allylidene)-4-oxo-2-thioxothiazolidin-3-yl)-3-phenylpropanoic acid]	–	–	16.5 µM	18.9 µM	–	–	–	–
–	–	–	–	–	–	–	–	–	–	–	N.N.[Cl][Pt][Cl] [cisplatin]	–	–	–	–	~80 µM	~80 µM	–	–
1.71 µM	1.76 µM	6.23 µM	10.5 µM	9.61 µM	1.41 µM	15.5 µM	4.05 µM	> 40 µM	3.13 µM	> 30 µM	O=C(O)CCCCCCCCCCN1C(=O)/C(=C/C=C/c2ccc([N+](=O)[O-])o2)SC1=S [15b, 11-((Z)-5-((E)-3-(5-nitrofuran-2-yl)allylidene)-4-oxo-2-thioxothiazolidin-3-yl)undecanoic acid]	–	–	11 µM	3.76 µM	–	–	–	–
5.55 µM	7.67 µM	6.28 µM	7.98 µM	13.6 µM	7.72 µM	18.5 µM	7.13 µM	16.7 µM	6.69 µM	2.19 µM	CC(C)CC(C(=O)O)N1C(=O)/C(=C/C=C/c2ccc([N+](=O)[O-])o2)SC1=S (centres unmarked) [7b, 4-Methyl-2-((Z)-5-((E)-3-(5-nitrofuran-2-yl)allylidene)-4-oxo-2-thioxothiazolidin-3-yl)pentanoic acid]	–	–	16.8 µM	15.6 µM	–	–	–	–
36.2 µM	28.8 µM	25.3 µM	> 40 µM	22.3 µM	1.76 µM	> 40 µM	> 40 µM	> 40 µM	> 10 µM	> 30 µM	O=C(O)CN1C(=O)/C(=C/C=C/c2ccc([N+](=O)[O-])o2)SC1=S [1b, 2-((Z)-5-((E)-3-(5-Nitrofuran-2-yl)allylidene)-4-oxo-2-thioxothiazolidin-3-yl)acetic acid]	–	–	> 40 µM	> 40 µM	–	–	–	–
1.09 µM	2.83 µM	3.14 µM	16.8 µM	0.73 µM	0.72 µM	0.43 µM	0.73 µM	7.53 µM	1.78 µM	0.36 µM	COc1cccc2c1C(=O)c1c(O)c3c(c(O)c1C2=O)C[C@@](O)(C(=O)CO)C[C@@H]3O[C@H]1C[C@H](N)[C@H](O)[C@H](C)O1 [DOX, Doxorubicin hydrochloride, reference compound]	–	–	0.38 µM	39.9 µM	–	–	fewer effects on reactive oxygen species generation	fewer effects on reactive oxygen species generation
